Test results as given in article PMC4928820 (Molecular Pharmaceutics, 2015).

Legend:
[1] = assay type: physicochemical; conditions: 37 °C, mean ± SD, triplicate; for Thermodynamic solubility in Carbitol: cosolvent; for Thermodynamic solubility in Maisine 35-1: long-chain mono-; for Thermodynamic solubility in Maisine 35-1 / Thermodynamic solubility in Capmul MCM EP: di-, triglyceride; for Thermodynamic solubility in Capmul MCM EP: medium-chain mono-; for Thermodynamic solubility in Cremophor EL: surfactant (≤3% w/w water)
[2] = water-saturated tricaprylin compared to dry tricaprylin ref 34; cited from earlier work

Row | SMILES | Thermodynamic solubility in Carbitol [1] | Thermodynamic solubility in Maisine 35-1 [1] | Thermodynamic solubility in Capmul MCM EP [1] | Thermodynamic solubility in Cremophor EL [1] | Increase of solubility [2]
1 | CC(=O)[C@H]1CC[C@H]2[C@@H]3CCC4=CC(=O)CC[C@]4(C)[C@H]3CC[C@]12C [progesterone] | 67.02 ± 1.36 mg/g | 66.2 ± 4.87 mg/g | 99.1 ± 2.94 mg/g | 41.1 ± 1.27 mg/g | –
2 | O=C(CCCN1CCC(O)(c2ccc(Cl)cc2)CC1)c1ccc(F)cc1 [haloperidol] | 27.2 ± 1.82 mg/g | 3.57 ± 0.16 mg/g | 13.4 ± 0.51 mg/g | 11.3 ± 0.82 mg/g | –
3 | CNC(=O)c1ccccc1 [N-methylbenzamide] | – | – | – | – | more than 50%
4 | CCOc1nc2cccc(C(=O)OC(C)OC(=O)OC3CCCCC3)c2n1Cc1ccc(-c2ccccc2-c2nnn[nH]2)cc1 (stereo not drawn) [candesartan cilexetil] | 77.0 ± 2.04 mg/g | 1.99 ± 0.19 mg/g | 9.07 ± 0.38 mg/g | 26.4 ± 1.46 mg/g | –
5 | COC1=CC(=O)C[C@@H](C)[C@]12Oc1c(Cl)c(OC)cc(OC)c1C2=O [griseofulvin] | 18.9 ± 0.99 mg/g | 2.43 ± 0.05 mg/g | 5.56 ± 0.21 mg/g | 9.70 ± 0.36 mg/g | –
6 | OCCN(CCO)c1nc(N2CCCCC2)c2nc(N(CCO)CCO)nc(N3CCCCC3)c2n1 [dipyridamole] | 43.1 ± 2.40 mg/g | 3.02 ± 0.16 mg/g | 12.3 ± 0.36 mg/g | 9.57 ± 0.29 mg/g | –
7 | CCCCN(CCCC)CCC(O)c1cc2c(Cl)cc(Cl)cc2c2cc(C(F)(F)F)ccc12 (stereo not drawn) [halofantrine] | 79.3 ± 7.90 mg/g | 71.2 ± 4.58 mg/g | 52.6 ± 3.01 mg/g | 27.9 ± 0.79 mg/g | –
8 | C#C[C@]1(O)CC[C@H]2[C@@H]3CCc4cc(O)ccc4[C@H]3CC[C@@]21C [ethinylestradiol] | 247.1 ± 8.93 mg/g | 22.1 ± 1.83 mg/g | 56.3 ± 1.76 mg/g | 163.9 ± 10.1 mg/g | –
9 | CCN(CC)C(=S)SSC(=S)N(CC)CC [disulfiram] | 162.6 ± 8.46 mg/g | 49.0 ± 3.05 mg/g | 47.2 ± 2.05 mg/g | 88.8 ± 3.66 mg/g | –
10 | CCOC(=O)C1=C(C)NC(C)=C(C(=O)OC)C1c1cccc(Cl)c1Cl (stereo not drawn) [felodipine] | 217.2 ± 16.0 mg/g | 37.7 ± 1.37 mg/g | 80.2 ± 2.22 mg/g | 125.1 ± 6.23 mg/g | –
11 | Cc1cc(-n2c(=O)[nH]c(=O)n(C)c2=O)ccc1Oc1ccc(SC(F)(F)F)cc1 [toltrazuril] | 50.2 ± 2.47 mg/g | 7.90 ± 1.03 mg/g | 11.8 ± 0.59 mg/g | 19.7 ± 3.11 mg/g | –
12 | CC(C)(C)NC(=O)[C@@H]1C[C@@H]2CCCC[C@@H]2CN1C[C@@H](O)[C@H](Cc1ccccc1)NC(=O)[C@H](CC(N)=O)NC(=O)c1ccc2ccccc2n1 [saquinavir] | ≥317 mg/g | ≥123 mg/g | ≥288 mg/g | – | –
13 | Clc1ccccc1C(c1ccccc1)(c1ccccc1)n1ccnc1 [clotrimazole] | 135.0 ± 3.57 mg/g | 75.4 ± 8.95 mg/g | 136.7 ± 5.94 mg/g | 44.1 ± 3.01 mg/g | –
14 | CCCSc1ccc2nc(NC(=O)OC)[nH]c2c1 [albendazole] | 5.99 ± 0.19 mg/g | 3.86 ± 0.21 mg/g | 3.17 ± 0.10 mg/g | 2.75 ± 0.14 mg/g | –
15 | O=C(C1CCCCC1)N1CC(=O)N2CCc3ccccc3C2C1 (stereo not drawn) [praziquantel] | 116.9 ± 14.8 mg/g | 85.9 ± 5.32 mg/g | 184.9 ± 12.4 mg/g | 45.4 ± 3.51 mg/g | –
16 | COc1cc(C)c(/C=C/C(C)=C/C=C/C(C)=C/C(=O)O)c(C)c1C [acitretin] | 3.52 ± 0.20 mg/g | 0.62 ± 0.06 mg/g | 1.54 ± 0.10 mg/g | 2.85 ± 0.14 mg/g | –
17 | CCC(C)n1ncn(-c2ccc(N3CCN(c4ccc(OCC5COC(Cn6cncn6)(c6ccc(Cl)cc6Cl)O5)cc4)CC3)cc2)c1=O (stereo not drawn) [itraconazole] | 6.30 ± 0.55 mg/g | 2.26 ± 0.16 mg/g | 5.60 ± 0.67 mg/g | 1.92 ± 0.29 mg/g | –
18 | CC(C)(Oc1ccc(CCNC(=O)c2ccc(Cl)cc2)cc1)C(=O)O [bezafibrate] | 43.0 ± 1.83 mg/g | 1.55 ± 0.05 mg/g | 6.36 ± 0.26 mg/g | 37.9 ± 5.23 mg/g | –
19 | COc1ccc2c(c1OC)C(=O)O[C@@H]2[C@H]1c2c(cc3c(c2OC)OCO3)CCN1C [noscapine] | 25.6 ± 1.00 mg/g | 5.36 ± 0.61 mg/g | 7.23 ± 0.20 mg/g | 12.3 ± 0.25 mg/g | –

Continued, in another order:

Row | Thermodynamic solubility in Carbitol [1] | Thermodynamic solubility in Maisine 35-1 [1] | Thermodynamic solubility in Capmul MCM EP [1] | Thermodynamic solubility in Cremophor EL [1] | SMILES | Increase of solubility [2]
20 | 82.9 ± 1.80 mg/g | 30.0 ± 1.66 mg/g | 55.5 ± 3.23 mg/g | 34.5 ± 1.06 mg/g | NC(=O)N1c2ccccc2C=Cc2ccccc21 [carbamazepine] | –
21 | 16.4 ± 0.72 mg/g | 0.16 ± 0.02 mg/g | 3.16 ± 0.06 mg/g | 13.1 ± 1.02 mg/g | O=C(O)c1cc(/N=N/c2ccc(S(=O)(=O)Nc3ccccn3)cc2)ccc1O [sulfasalazine] | –
22 | 92.8 ± 4.81 mg/g | 7.38 ± 0.22 mg/g | 14.5 ± 0.50 mg/g | 58.4 ± 2.59 mg/g | CC(C)(Oc1ccc(C(=O)c2ccc(Cl)cc2)cc1)C(=O)O [fenofibric acid] | –
23 | 21.1 ± 0.46 mg/g | 0.52 ± 0.14 mg/g | 5.49 ± 0.26 mg/g | 11.2 ± 1.01 mg/g | COc1ccc(Cl)cc1C(=O)NCCc1ccc(S(=O)(=O)NC(=O)NC2CCCCC2)cc1 [glibenclamide] | –
24 | 286.3 ± 13.4 mg/g | 31.6 ± 0.99 mg/g | 53.4 ± 1.29 mg/g | 157.9 ± 6.54 mg/g | O=C(O)c1cc(-c2ccc(F)cc2F)ccc1O [diflunisal] | –
25 | 187.4 ± 7.08 mg/g | 13.0 ± 0.88 mg/g | 28.6 ± 1.30 mg/g | 71.6 ± 4.57 mg/g | COc1ccc2c(c1)c(CC(=O)O)c(C)n2C(=O)c1ccc(Cl)cc1 [indomethacin] | –
26 | 85.5 ± 4.29 mg/g | 14.1 ± 1.18 mg/g | 26.0 ± 1.45 mg/g | 70.6 ± 3.87 mg/g | Cc1c(Cl)cccc1Nc1ccccc1C(=O)O [tolfenamic acid] | –
27 | 20.5 ± 1.26 mg/g | ≤0.41 mg/g | 3.19 ± 0.14 mg/g | 11.3 ± 0.67 mg/g | CCOc1nc2cccc(C(=O)O)c2n1Cc1ccc(-c2ccccc2-c2nnn[nH]2)cc1 [candesartan] | –
28 | 43.6 ± 1.52 mg/g | 5.38 ± 0.40 mg/g | 9.63 ± 0.40 mg/g | 30.7 ± 0.89 mg/g | Cc1cccc(Nc2ccccc2C(=O)O)c1C [mefenamic acid] | –
29 | 49.6 ± 2.62 mg/g | 3.97 ± 0.19 mg/g | 10.1 ± 0.40 mg/g | 44.1 ± 1.75 mg/g | O=C(Nc1ccc([N+](=O)[O-])cc1Cl)c1cc(Cl)ccc1O [niclosamide] | –
30 | 22.8 ± 0.54 mg/g | 11.7 ± 0.24 mg/g | 16.3 ± 0.44 mg/g | 15.9 ± 0.83 mg/g | CC(C)/N=c1\cc2n(-c3ccc(Cl)cc3)c3ccccc3nc-2cc1Nc1ccc(Cl)cc1 [clofazimine] | –
31 | 4.13 ± 0.28 mg/g | 0.69 ± 0.11 mg/g | 1.28 ± 0.09 mg/g | 2.07 ± 0.09 mg/g | COC(=O)Nc1nc2ccc(Sc3ccccc3)cc2[nH]1 [fenbendazole] | –
